# Assay results: US11759462B2, “Spirocyclic compounds as tryptophan hydroxylase inhibitors” (priority 2013, dated 2023)
# Target: T1, Recombinant human TPH1 (MBP tagged) (Homo sapiens, UniProt P17752)
# T1 construct: cloning full length human TPH1 cDNA in to a bacterial pMAL-c5E expression vector; made in house; host or cells: E. coli BL21 (DE3)
# T1 sequence (P17752 1-444): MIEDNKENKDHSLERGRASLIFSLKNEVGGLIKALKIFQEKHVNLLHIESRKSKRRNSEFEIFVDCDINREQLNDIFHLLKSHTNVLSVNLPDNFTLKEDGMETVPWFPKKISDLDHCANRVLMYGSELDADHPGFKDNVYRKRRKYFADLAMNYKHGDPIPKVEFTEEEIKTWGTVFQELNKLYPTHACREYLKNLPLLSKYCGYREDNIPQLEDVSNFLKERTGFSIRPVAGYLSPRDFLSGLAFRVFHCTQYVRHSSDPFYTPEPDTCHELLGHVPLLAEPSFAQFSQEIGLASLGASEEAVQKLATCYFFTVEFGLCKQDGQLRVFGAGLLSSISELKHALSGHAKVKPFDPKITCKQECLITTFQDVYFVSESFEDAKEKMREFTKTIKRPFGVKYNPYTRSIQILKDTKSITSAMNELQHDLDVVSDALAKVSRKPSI
# Experiment: TPH1 in vitro inhibition assay (kinetic fluorescence)
# Format: biochemical
# Conditions: read-out: TPH1 Range (TPH1 inhibition IC50)
# How it was run: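 Final mix: 15 nM MBP-TPH1, 30 μM Trp, 36 μM 6-methyltetrahydropterin, 25 μM ferrous ammonium sulfate, 50 mM MES pH 7.1, 1% DMSO, room temperature.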
row,IC50,Compound
1,300 to 3000 nM,"CN(C)Cc1ccccc1-c1ccc([C@@H](Oc2cc(N3CCC4(CC3)CN[C@H](C(=O)O)C4)nc(N)n2)C(F)(F)F)cc1 [Example 55by, (S)-8-(2-amino-6-((R)-1-(2′-((dimethylamino)methyl)-[1,1′-biphenyl]-4-yl)-2,2,2-trifluoroethoxy)pyrimidin-4-yl)-2,8-diazaspiro[4.5]decane-3-carboxylic acid]"
2,50 to 300 nM,"CCc1ccc(-c2ccc([C@@H](Oc3cc(N4CCC5(CC4)CN[C@H](C(=O)O)C5)nc(N)n3)C(F)(F)F)cc2)cc1 [Example 55bz, (S)-8-(2-amino-6-((R)-1-(4′-ethyl-[1,1′-biphenyl]-4-yl)-2,2,2-trifluoroethoxy)pyrimidin-4-yl)-2,8-diazaspiro[4.5]decane-3-carboxylic acid]"
3,50 to 300 nM,"Cn1cnc2cc(-c3ccc([C@@H](Oc4cc(N5CCC6(CC5)CN[C@H](C(=O)O)C6)nc(N)n4)C(F)(F)F)cc3)ccc21 [Example 55c, (S)-8-(2-amino-6-((R)-2,2,2-trifluoro-1-(4-(1-methyl-1H-benzo[d]imidazol-5-yl)phenyl)ethoxy)pyrimidin-4-yl)-2,8-diazaspiro[4.5]decane-3-carboxylic acid]"
4,50 to 300 nM,"Nc1nc(O[C@H](c2ccc(-c3cccc(O)c3)cc2)C(F)(F)F)cc(N2CCC3(CC2)CN[C@H](C(=O)O)C3)n1 [Example 55ca, (S)-8-(2-amino-6-((R)-2,2,2-trifluoro-1-(3′-hydroxy-[1,1′-biphenyl]-4-yl)ethoxy)pyrimidin-4-yl)-2,8-diazaspiro[4.5]decane-3-carboxylic acid]"
5,50 to 300 nM,"Nc1nc(O[C@H](c2ccc(-c3ccc(O)cc3)cc2)C(F)(F)F)cc(N2CCC3(CC2)CN[C@H](C(=O)O)C3)n1 [Example 55cb, (S)-8-(2-amino-6-((R)-2,2,2-trifluoro-1-(4′-hydroxy-[1,1′-biphenyl]-4-yl)ethoxy)pyrimidin-4-yl)-2,8-diazaspiro[4.5]decane-3-carboxylic acid]"
6,50 to 300 nM,"COc1ccc(-c2ccc([C@@H](Oc3cc(N4CCC5(CC4)CN[C@H](C(=O)O)C5)nc(N)n3)C(F)(F)F)cc2)c(OC)c1 [Example 55cc, (S)-8-(2-amino-6-((R)-1-(2′,4′-dimethoxy-[1,1′-biphenyl]-4-yl)-2,2,2-trifluoroethoxy)pyrimidin-4-yl)-2,8-diazaspiro[4.5]decane-3-carboxylic acid]"
7,300 to 3000 nM,"Nc1nc(O[C@H](c2ccc(-c3ccc(C(F)(F)F)cc3)cc2)C(F)(F)F)cc(N2CCC3(CC2)CN[C@H](C(=O)O)C3)n1 [Example 55cd, (S)-8-(2-amino-6-((R)-2,2,2-trifluoro-1-(4′-(trifluoromethyl)-[1,1′-biphenyl]-4-yl)ethoxy)pyrimidin-4-yl)-2,8-diazaspiro[4.5]decane-3-carboxylic acid]"
8,300 to 3000 nM,"Nc1nc(O[C@H](c2ccc(-c3ccccc3C(F)(F)F)cc2)C(F)(F)F)cc(N2CCC3(CC2)CN[C@H](C(=O)O)C3)n1 [Example 55ce, (S)-8-(2-amino-6-((R)-2,2,2-trifluoro-1-(2′-(trifluoromethyl)-[1,1′-biphenyl]-4-yl)ethoxy)pyrimidin-4-yl)-2,8-diazaspiro[4.5]decane-3-carboxylic acid]"
9,3000 to 10000 nM,"Nc1nc(O[C@H](c2ccc(-c3c(F)cccc3F)cc2)C(F)(F)F)cc(N2CCC3(CC2)CN[C@H](C(=O)O)C3)n1 [Example 55cf, (S)-8-(2-amino-6-((R)-1-(2′,6′-difluoro-[1,1′-biphenyl]-4-yl)-2,2,2-trifluoroethoxy)pyrimidin-4-yl)-2,8-diazaspiro[4.5]decane-3-carboxylic acid]"
10,300 to 3000 nM,"Cc1cccc(C)c1-c1ccc([C@@H](Oc2cc(N3CCC4(CC3)CN[C@H](C(=O)O)C4)nc(N)n2)C(F)(F)F)cc1 [Example 55cg, (S)-8-(2-amino-6-((R)-1-(2′,6′-dimethyl-[1,1′-biphenyl]-4-yl)-2,2,2-trifluoroethoxy)pyrimidin-4-yl)-2,8-diazaspiro[4.5]decane-3-carboxylic acid]"
11,50 to 300 nM,"Cc1ccc(-c2ccc([C@@H](Oc3cc(N4CCC5(CC4)CN[C@H](C(=O)O)C5)nc(N)n3)C(F)(F)F)cc2)cc1C [Example 55ch, (S)-8-(2-amino-6-((R)-1-(3′,4′-dimethyl-[1,1′-biphenyl]-4-yl)-2,2,2-trifluoroethoxy)pyrimidin-4-yl)-2,8-diazaspiro[4.5]decane-3-carboxylic acid]"
12,300 to 3000 nM,"CC(C)(C)c1ccc(-c2ccc([C@@H](Oc3cc(N4CCC5(CC4)CN[C@H](C(=O)O)C5)nc(N)n3)C(F)(F)F)cc2)cc1 [Example 55ci, (S)-8-(2-amino-6-((R)-1-(4′-(tert-butyl)-[1,1′-biphenyl]-4-yl)-2,2,2-trifluoroethoxy)pyrimidin-4-yl)-2,8-diazaspiro[4.5]decane-3-carboxylic acid]"
13,300 to 3000 nM,"CC(C)c1ccc(-c2ccc([C@@H](Oc3cc(N4CCC5(CC4)CN[C@H](C(=O)O)C5)nc(N)n3)C(F)(F)F)cc2)cc1 [Example 55cj, (S)-8-(2-amino-6-((R)-2,2,2-trifluoro-1-(4′-isopropyl-[1,1′-biphenyl]-4-yl)ethoxy)pyrimidin-4-yl)-2,8-diazaspiro[4.5]decane-3-carboxylic acid]"
14,300 to 3000 nM,"CC(C)c1cccc(-c2ccc([C@@H](Oc3cc(N4CCC5(CC4)CN[C@H](C(=O)O)C5)nc(N)n3)C(F)(F)F)cc2)c1 [Example 55ck, (S)-8-(2-amino-6-((R)-2,2,2-trifluoro-1-(3′-isopropyl-[1,1′-biphenyl]-4-yl)ethoxy)pyrimidin-4-yl)-2,8-diazaspiro[4.5]decane-3-carboxylic acid]"
15,50 to 300 nM,"Nc1nc(O[C@H](c2ccc(-c3ccc(Cl)c(Cl)c3)cc2)C(F)(F)F)cc(N2CCC3(CC2)CN[C@H](C(=O)O)C3)n1 [Example 55cl, (S)-8-(2-amino-6-((R)-1-(3′,4′-dichloro-[1,1′-biphenyl]-4-yl)-2,2,2-trifluoroethoxy)pyrimidin-4-yl)-2,8-diazaspiro[4.5]decane-3-carboxylic acid]"
16,300 to 3000 nM,"Nc1nc(O[C@H](c2ccc(-c3ccc(OC(F)(F)F)cc3)cc2)C(F)(F)F)cc(N2CCC3(CC2)CN[C@H](C(=O)O)C3)n1 [Example 55cm, (S)-8-(2-amino-6-((R)-2,2,2-trifluoro-1-(4′-(trifluoromethoxy)-[1,1′-biphenyl]-4-yl)ethoxy)pyrimidin-4-yl)-2,8-diazaspiro[4.5]decane-3-carboxylic acid]"
17,300 to 3000 nM,"Cc1cccc(-c2ccc([C@@H](Oc3cc(N4CCC5(CC4)CN[C@H](C(=O)O)C5)nc(N)n3)C(F)(F)F)cc2)c1C [Example 55cn, (S)-8-(2-amino-6-((R)-1-(2′,3′-dimethyl-[1,1′-biphenyl]-4-yl)-2,2,2-trifluoroethoxy)pyrimidin-4-yl)-2,8-diazaspiro[4.5]decane-3-carboxylic acid]"
18,300 to 3000 nM,"Cc1cc(Cl)ccc1-c1ccc([C@@H](Oc2cc(N3CCC4(CC3)CN[C@H](C(=O)O)C4)nc(N)n2)C(F)(F)F)cc1 [Example 55cp, (S)-8-(2-amino-6-((R)-1-(4′-chloro-2′-methyl-[1,1′-biphenyl]-4-yl)-2,2,2-trifluoroethoxy)pyrimidin-4-yl)-2,8-diazaspiro[4.5]decane-3-carboxylic acid]"
